Measured values reported in patent US8952024B2, “Herbicidal pyrimidone derivatives” (E I du Pont de Nemours and Company, priority 2009, dated 2015).

Columns and labels:
Assay in all cases: Test B pre-/postemergence plant response
Type in all cases: in vivo
[1] = test system: lambsquarters (Chenopodium album)
Outline: (§1)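 Ratings reflect visual comparison with untreated controls 13 to 15 days after application, from 0 (no effect) to 100 (complete control). Application was preemergence to seeded loam/sand soil or postemergence to 1- to 4-leaf plants, with compound in a non-phytotoxic, surfactant-containing solvent.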

[2] = test system: soybean (Glycine max)
Outline: as §1

[3] = test system: wild oat (Avena fatua)
Outline: as §1

[4] = test system: corn (Zea mays)
Outline: as §1

[5] = test system: goosegrass (Eleusine indica)
Outline: as §1

[6] = test system: downy bromegrass (Bromus tectorum)
Outline: as §1

[7] = test system: velvetleaf (Abutilon theophrasti)
Outline: as §1

[8] = test system: morningglory (Ipomoea coccinea)
Outline: as §1

[9] = test system: large crabgrass (Digitaria sanguinalis)
Outline: as §1

[10] = test system: woolly cupgrass (Eriochloa villosa)
Outline: as §1

[11] = test system: green foxtail (Setaria viridis)
Outline: as §1

[12] = test system: blackgrass (Alopecurus myosuroides)
Outline: as §1

[13] = test system: Surinam grass (Brachiaria decumbens)
Outline: as §1

[14] = test system: kochia (Kochia scoparia)
Outline: as §1

[15] = test system: johnsongrass (Sorghum halepense)
Outline: as §1

[16] = test system: yellow nutsedge (Cyperus esculentus)
Outline: as §1

[17] = test system: pigweed (Amaranthus retroflexus)
Outline: as §1

[18] = 31 g ai/ha, postemergence, scale 0 to 100, 0 is no effect, 100 is complete control
[19] = 62 g ai/ha, postemergence, 0 is no effect, 100 is complete control, 13 to 15 days
[20] = Postemergence, 250 g ai/ha, scale 0 to 100 (0 no effect, 100 complete control)
[21] = Postemergence, 125 g ai/ha, visual rating after 13 to 15 days, scale 0 (no effect) to 100 (complete control)

CCCn1c(-c2ccsc2)ncc(C(=O)C2=C(O)CCCC2=O)c1=O [Compound 93]
Plant response rating, Lambsquarters [1, 18]: 85
Lambsquarters plant response rating (0 to 100 scale) [1, 19]: 95
Plant response rating, Lambsquarters [1, 20]: 98
Plant response rating, Soybean [2, 18]: 55
Soybean plant response rating (0 to 100 scale) [2, 19]: 80
Plant response rating, Soybean [2, 20]: 98
Plant response rating, Oat, Wild [3, 18]: 0
Oat, Wild plant response rating (0 to 100 scale) [3, 19]: 0
Plant response rating, Oat, Wild [3, 20]: 5
Plant response rating, Corn [4, 18]: 0
Corn plant response rating (0 to 100 scale) [4, 19]: 45
Plant response rating, Corn [4, 21]: 50
Plant response rating, Corn [4, 20]: 60
Plant response rating, Goosegrass [5, 18]: 60
Goosegrass plant response rating (0 to 100 scale) [5, 19]: 65
Plant response rating, Goosegrass [5, 20]: 75
Plant response rating, Bromegrass, Downy [6, 18]: 0
Bromegrass, Downy plant response rating (0 to 100 scale) [6, 19]: 0
Plant response rating, Bromegrass, Downy [6, 21]: 0
Plant response rating, Bromegrass, Downy [6, 20]: 0
Plant response rating, Velvetleaf [7, 18]: 85
Velvetleaf plant response rating (0 to 100 scale) [7, 19]: 90
Plant response rating, Velvetleaf [7, 20]: 98
Plant response rating, Morningglory [8, 18]: 70
Morningglory plant response rating (0 to 100 scale) [8, 19]: 80
Plant response rating, Morningglory [8, 20]: 100
Plant response rating, Crabgrass, Large [9, 18]: 70
Crabgrass, Large plant response rating (0 to 100 scale) [9, 19]: 80
Plant response rating, Crabgrass, Large [9, 21]: 80
Plant response rating, Crabgrass, Large [9, 20]: 90
Plant response rating, Cupgrass, Woolly [10, 18]: 45
Cupgrass, Woolly plant response rating (0 to 100 scale) [10, 19]: 45
Plant response rating, Cupgrass, Woolly [10, 21]: 65
Plant response rating, Cupgrass, Woolly [10, 20]: 70
Plant response rating, Foxtail, Green [11, 18]: 50
Foxtail, Green plant response rating (0 to 100 scale) [11, 19]: 60
Plant response rating, Foxtail, Green [11, 20]: 90
Plant response rating, Blackgrass [12, 18]: 0
Blackgrass plant response rating (0 to 100 scale) [12, 19]: 5
Plant response rating, Blackgrass [12, 21]: 30
Plant response rating, Blackgrass [12, 20]: 30
Plant response rating, Surinam Grass [13, 18]: 50
Surinam Grass plant response rating (0 to 100 scale) [13, 19]: 65
Plant response rating, Surinam Grass [13, 20]: 70
Plant response rating, Kochia [14, 18]: 65
Kochia plant response rating (0 to 100 scale) [14, 19]: 85
Plant response rating, Kochia [14, 20]: 98
Plant response rating, Johnsongrass [15, 18]: 10
Johnsongrass plant response rating (0 to 100 scale) [15, 19]: 10
Plant response rating, Johnsongrass [15, 20]: 70
Plant response rating, Nutsedge, Yellow [16, 18]: 45
Nutsedge, Yellow plant response rating (0 to 100 scale) [16, 19]: 60
Plant response rating, Nutsedge, Yellow [16, 20]: 70
Plant response rating, Pigweed [17, 18]: 90
Pigweed plant response rating (0 to 100 scale) [17, 19]: 95
Plant response rating, Pigweed [17, 20]: 100
